Reference: US11198673B2, “Therapeutic compounds and compositions” (eXIthera Pharmaceuticals, Inc., priority 2014, dated 2021)

Assays:
human Factor XIa = target: T1, human Factor XIa (Homo sapiens, UniProt P03951); test: Factor XIa enzyme inhibition assay (IC50, purified enzyme); type: biochemical; details: purified enzyme 0.25 nM, substrate 50 μM; read-out: Potency hFXIa IC50
T1 construct: Enzyme: Factor XIa; 0.25 μM in 50% glycerol (20 μg/mL)
Procedure: (§1) • Assay buffer: 20 mM Hepes, pH 7.4; 150 mM NaCl; 0.02% Tween 20 • Compounds: 10 mM stocks in DMSO • Substrate: 20 mM Glp-Pro-Arg-AMC, 25 mg/2.3 mL H2O (store at +4° C.) [Factor XIa, thrombin, and trypsin] • 20 mM Pro-Phe-Arg-AMC (Bachem I-1295), 25 mg/2.2 mL H2O (store at +4° C.) [Factor Xa] • Enzyme: Factor XIa; 0.25 μM in 50% glycerol (20 μg/mL) • Trypsin; 0.2 μM in 50% glycerol (4.8 μg/mL) • Thrombin; 0.2 μM in 50% glycerol (7.34 μg/mL) • Factor Xa; 0.2 μM in 50% glycerol (9.2 μg/mL) • These stocks are aliquoted ([…]) and stored at −20° C. Methods: • 1. Dilute the substrate to 100 μM in assay buffer (30 μL/6 mL). The enzyme is diluted to 0.5 nM just prior to use (12 μL/6 mL for Factor XIa; 15 μL/6 mL for all of the rest.) • 2. Pipette 50 μL of substrate into each well of the 96 well (12×8) microtiter plate. (Column 1 is used as the 100% activity control and receives no compound, and Column 12 is the blank and receives no enzyme.) Add an additional 46 μL to column 2. • 3. Pipette 4 μL of each compound into the appropriate well in column 2 of the plate (unknowns assayed in triplicate, standard assayed in duplicate). The final compound concentration will be 1/50th of the stock. • 4. Serially two-fold dilute the compound by mixing the sample in column 2, removing 50 μL to the next well (column 3), mix and remove to column 4, etc. until column 11. After mixing column 11, remove 50 μL and discard. • 5. Pipette 50 μL of buffer into column 12. Initiate the reaction by adding 50 μL of enzyme solution to each well of columns 1-11 as rapidly as possible. • 6. Read the plate in a spectrophotometer (SpectraMax) at 30° C., wherein each well is measured every 60 s for 30 min. For Factor Xa assays, each well is measured every 1 min for a total of 60 min. • 7. For Factor XIa assays, the compounds are assayed, in duplicate, at 3 different starting concentrations, 20, 2, and 0.2 μM; 1:10, 1:100, and 1:1000 dil'n of 10 mM stock. All data sets are combined for graphing and data fitting. • 8. Data can be used both for estimation of IC50 and for estimation of Kon.
Potential inhibitors of Factor XIa were evaluated using the following assay.
S-2366, pyroGlu-Pro-Arg-7-methylaminocourin (AMC), available from CPC Scientific, Inc., is based on the substrate pyro-Glu-Pro-Arg-pNA, available from Diapharma Group, Inc. (Columbus, Ohio), where the p-nitroanaline group is replaced with 7-methylaminocoumarin (AMC).
The final concentration of the substrate in the assay was 50 μM, and the final concentration of the enzyme was 0.25 nM. Inhibitors were tested by serial dilution over an appropriate range to yield a dose response curve for determination of the inhibitors' IC50 value. The assay mixture was read every minute for 30 minutes in order to generate progress curves. The plates were read in a Spectramax m5 Multimode Plate Reader (Molecular Devices LLC, Sunnyvale, Calif.). Dose response curves were fit to Equation 1 below in which A is the maximum inhibition, B is the minimum inhibition, C is the IC50, and D is the Hill coefficient. [(A−B)/(1+(X/C)^D)]+B (Equation 1)

Factor Xa = target: T2, Factor Xa (Homo sapiens, UniProt P00742); test: Dose response assay for protease inhibitors: Factor Xa (FXIa fold selectivity); type: biochemical; details: fold selectivity for FXIa over Factor Xa
T2 construct: Factor Xa; 0.2 μM in 50% glycerol (9.2 μg/mL)
T2 sequence (P00742 235-488 limits assumed): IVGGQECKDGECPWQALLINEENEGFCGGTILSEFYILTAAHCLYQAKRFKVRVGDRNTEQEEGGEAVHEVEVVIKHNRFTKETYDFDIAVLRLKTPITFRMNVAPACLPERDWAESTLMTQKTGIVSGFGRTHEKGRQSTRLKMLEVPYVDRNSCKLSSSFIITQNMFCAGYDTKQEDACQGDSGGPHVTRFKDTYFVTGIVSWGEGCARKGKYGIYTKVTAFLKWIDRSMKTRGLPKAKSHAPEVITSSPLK
T2 sequence (P00742 41-179 partner limits assumed): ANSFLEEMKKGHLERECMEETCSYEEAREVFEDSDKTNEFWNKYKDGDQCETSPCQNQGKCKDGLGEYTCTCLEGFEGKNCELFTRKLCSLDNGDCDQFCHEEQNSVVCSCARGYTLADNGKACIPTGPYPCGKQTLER
Procedure: as §1

Thrombin = target: T3, Thrombin (Homo sapiens, UniProt P00734); test: Dose response assay for protease inhibitors: thrombin (FXIa fold selectivity); type: biochemical; details: fold selectivity for FXIa over thrombin
T3 construct: Thrombin; 0.2 μM in 50% glycerol (7.34 μg/mL)
Procedure: as §1

Trypsin = test: Dose response assay for protease inhibitors: trypsin (FXIa fold selectivity); type: biochemical; details: fold selectivity for FXIa over trypsin
Procedure: as §1

[1] = β-Lactam stability in rat plasma; type: in vitro ADME; details: normal rat plasma, room temperature; read-out: Rat Plasma Stability (T1/2; min)
Procedure: Normal rat plasma, stored at −80° C.
• 1. Place 6 μL of each compound into 0.5 mL microcentrifuge tubes or 96-well U-bottom, polypropylene microtiter plate • 2. Place 40 μL of acetonitrile (AcN) into 0.5 mL microcentrifuge tubes labeled 1-9 • 3. Add 114 μL of plasma to each compound • 4. Sample 10 μL of compound/plasma into AcN at 2, 10, 20, 30, 60, 90, 120, 240, and 480 min of incubation at room temperature • 5. Mix each time point after adding sample and place on ice. • 6. Centrifuge time points (12,000 rpm, 3 min), remove 15 μL of the supernatant and mix with 15 μL 0.1% TFA in a V-bottom microtiter plate. • 7. Place microtiter plate in autosampler of HPLC and analyze on Restek Pinnacle C18 column (2.1×100 mm). • 8. Generate extracted ion chromatogram for parent compound and parent compound+18 (H2O). Integrate extracted ion chromatograms (EIC) and plot % total peak area for parent and adduct versus time. Fit to a model of single phase exponential decay [Y=A0*exp(−k*x)+C]. T½ is equal to ln(2)/k.

T1 sequence (P03951 388-625 limits assumed): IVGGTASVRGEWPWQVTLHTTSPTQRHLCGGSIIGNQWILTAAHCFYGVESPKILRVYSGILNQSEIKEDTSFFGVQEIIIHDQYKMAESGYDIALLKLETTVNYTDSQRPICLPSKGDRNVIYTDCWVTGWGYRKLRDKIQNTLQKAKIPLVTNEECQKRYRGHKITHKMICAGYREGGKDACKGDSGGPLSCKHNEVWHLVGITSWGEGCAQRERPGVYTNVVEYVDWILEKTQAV
T1 sequence (P03951 19-387 partner limits assumed): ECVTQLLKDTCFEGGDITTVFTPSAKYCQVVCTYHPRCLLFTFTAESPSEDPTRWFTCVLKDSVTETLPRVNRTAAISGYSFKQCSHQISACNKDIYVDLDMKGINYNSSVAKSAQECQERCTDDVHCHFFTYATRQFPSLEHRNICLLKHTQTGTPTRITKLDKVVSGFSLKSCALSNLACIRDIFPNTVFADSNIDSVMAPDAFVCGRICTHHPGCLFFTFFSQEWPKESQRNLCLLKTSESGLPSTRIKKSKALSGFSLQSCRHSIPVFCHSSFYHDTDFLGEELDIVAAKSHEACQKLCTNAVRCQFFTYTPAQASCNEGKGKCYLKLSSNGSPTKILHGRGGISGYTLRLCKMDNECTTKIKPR

SMILES	IC50 (human Factor XIa) [nM]	FXIa Fold Selectivity FXa (Factor Xa)	FXIa Fold Selectivity Thrombin (Thrombin)	FXIa Fold Selectivity Trypsin (Trypsin)	half-life [1] [h]
C[C@@H](NC(=O)N1C(=O)[C@H](Cc2ccnc(N)c2)[C@H]1C(=O)OCc1ccccc1)c1ccccc1 [Example 1]	< 10	G (“G” indicates 1-500)	G (“G” indicates 1-500)	G (“G” indicates 1-500)	
COC(=O)[C@@H]1[C@@H](Cc2ccc(Cl)s2)C(=O)N1C(=O)N[C@H](C)c1ccccc1 [Example 2]	> 1000		G (“G” indicates 1-500)	G (“G” indicates 1-500)	> 1.67
NC(=O)[C@@H]1[C@@H](Cc2ccnc(N)c2)C(=O)N1C(=O)NC(c1ccccc1)c1ccccc1 [Example 22]	< 10	I (“I” indicates >1000)	H (“H” indicates 500-1000)	I (“I” indicates >1000)	> 1.67
Nc1ncc(C[C@H]2C(=O)N(C(=O)NC(c3ccccc3)c3ccccc3)[C@@H]2C(=O)O)s1 [Example 23]	100 to 1000	G (“G” indicates 1-500)	G (“G” indicates 1-500)	G (“G” indicates 1-500)	
C[C@@H](NC(=O)N1C(=O)[C@H](Cc2cnc(N)s2)[C@H]1C(=O)O)c1ccccc1 [Example 24]	> 1000		G (“G” indicates 1-500)	G (“G” indicates 1-500)	
Nc1cc(CC[C@H]2C(=O)N(C(=O)NC(c3ccccc3)c3ccccc3)[C@@H]2C(=O)O)ccn1 [Example 25]	100 to 1000	G (“G” indicates 1-500)	G (“G” indicates 1-500)	G (“G” indicates 1-500)	
C[C@@H](NC(=O)N1C(=O)[C@H](Cc2ccnc(N)c2)[C@H]1C(N)=O)c1ccccc1 [Example 26]	< 10	H (“H” indicates 500-1000)	I (“I” indicates >1000)	I (“I” indicates >1000)	< 1.67
Nc1cc(C[C@H]2C(=O)N(C(=O)NC(c3ccccc3)c3ccccc3)[C@@H]2Oc2ccccc2)ccn1 [Example 27]	10 to 100	H (“H” indicates 500-1000)	G (“G” indicates 1-500)	G (“G” indicates 1-500)	< 1.67
N#C[C@@H]1[C@@H](Cc2ccnc(N)c2)C(=O)N1C(=O)NC(c1ccccc1)c1ccccc1 [Example 28]	10 to 100	I (“I” indicates >1000)	I (“I” indicates >1000)	G (“G” indicates 1-500)	< 1.67
COc1cccc([C@@H](C)NC(=O)N2C(=O)[C@H](Cc3ccnc(N)c3)[C@H]2C(=O)O)c1 [Example 29]	< 10	I (“I” indicates >1000)	I (“I” indicates >1000)	G (“G” indicates 1-500)	> 1.67
Nc1cc(C[C@H]2C(=O)N(C(=O)NCC(c3ccccc3)c3ccccc3)[C@@H]2C(=O)O)ccn1 [Example 31]	100 to 1000	G (“G” indicates 1-500)	G (“G” indicates 1-500)	G (“G” indicates 1-500)	> 1.67
CC(C)[C@@H](C)NC(=O)N1C(=O)[C@H](Cc2ccnc(N)c2)[C@H]1C(=O)O [Example 32]	10 to 100	G (“G” indicates 1-500)	G (“G” indicates 1-500)	G (“G” indicates 1-500)	> 1.67
CCO[C@@H]1[C@@H](Cc2ccnc(N)c2)C(=O)N1C(=O)NC(c1ccccc1)c1ccccc1 [Example 33]	> 1000	F (“F” indicates <1)	G (“G” indicates 1-500)	G (“G” indicates 1-500)	> 1.67
C[C@@H](NC(=O)N1C(=O)[C@H](Cc2ccnc(N)c2)[C@H]1C#N)c1ccccc1 [Example 34]	< 10	I (“I” indicates >1000)	I (“I” indicates >1000)	G (“G” indicates 1-500)	< 1.67
CS(=O)(=O)[C@@H]1[C@@H](Cc2ccnc(N)c2)C(=O)N1C(=O)NC(c1ccccc1)c1ccccc1 [Example 35]	100 to 1000	G (“G” indicates 1-500)	G (“G” indicates 1-500)	G (“G” indicates 1-500)	< 1.67
CC[C@@H](NC(=O)N1C(=O)[C@H](Cc2ccnc(N)c2)[C@H]1C(=O)O)c1ccccc1 [Example 36]	< 10	I (“I” indicates >1000)	I (“I” indicates >1000)	G (“G” indicates 1-500)	
C[C@@H](NC(=O)N1C(=O)[C@H](Cc2ccnc(N)c2)[C@H]1C(=O)O)c1ccc(F)cc1 [Example 37]	< 10	H (“H” indicates 500-1000)	I (“I” indicates >1000)	I (“I” indicates >1000)	
C[C@@H](NC(=O)N1C(=O)[C@H](Cc2ccnc(N)c2)[C@H]1S(C)(=O)=O)c1ccccc1 [Example 39]	100 to 1000	G (“G” indicates 1-500)	G (“G” indicates 1-500)	G (“G” indicates 1-500)	< 1.67
CCOC(=O)[C@@H]1[C@@H](Cc2ccnc(N)c2)C(=O)N1C(=O)NC(c1ccccc1)c1ccccc1 [Example 46]	10 to 100	I (“I” indicates >1000)	G (“G” indicates 1-500)	G (“G” indicates 1-500)	
C[C@@H](NC(=O)N1C(=O)[C@H](Cc2ccnc(N)c2)[C@H]1C(=O)O)c1cccnc1 [Example 54]	10 to 100	H (“H” indicates 500-1000)	I (“I” indicates >1000)	G (“G” indicates 1-500)	
CC(=O)OCOC(=O)[C@@H]1[C@@H](Cc2ccnc(NC(=O)OCOC(=O)C(C)C)c2)C(=O)N1C(=O)N[C@H](C)c1ccc2c(c1)OC(F)(F)O2 [Example 180]	10 to 100				< 1.67
